Experimental data published in PMC8398153, “Binding Properties of Photosynthetic Herbicides with the QB Site of the D1 Protein in Plant Photosystem II: A Combined Functional and Molecular Docking Study” (Plants, 2021).

Molecular target: T1, plant Photosystem II (PSII), D1 protein QB site, pea (Lathyrus oleraceus, UniProt P06585)
T1 construct: gene psbA; native D1 within whole PSII complex (D1/D2 reaction centre) in isolated thylakoid membranes from 4-week-old pea leaves; no tag, not purified further
Assay: DPIP photoreduction (Hill reaction, […] nm) in isolated thylakoid membranes, Langmuir isotherm fit
Assay type: biochemical
Conditions: pH 7.2, 100 µM DPIP, 5 mM NH4Cl, 5 mM MgCl2, 15 µg/mL Chl, white light 500 µmol photons m^-2 s^-1, 10 min dark preincubation at room temperature, competitive with plastoquinone, read-out: DPIP Photoreduction / I50

SMILES	IC50 [nM]
CCNc1nc(Cl)nc(NC(C)(C)C)n1 [Terbuthylazine]	110
CSc1nnc(C(C)(C)C)c(=O)n1N [Metribuzin]	156
CN(C)C(=O)Nc1ccc(Cl)c(Cl)c1 [Diuron]	71.8
CC(C)N1C(=O)c2ccccc2NS1(=O)=O [Bentazon]	6160
